In the METLIN SMRT retention time set (Domingo-Almenara et al. 2019):

Assay: gradient 5% acetonitrile 3 min, to 50% in 2 min, to 85% in 15 min, held 3 min, 100 µL/min
Settings: column: Zorbax Extend-C18 2.1 x 50 mm; eluents: water / acetonitrile, 0.1% formic acid
How it was run: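 Pure standards were analyzed in mixtures of ~100 molecules using HPLC coupled to a quadrupole time-of-flight mass spectrometer, in both positive and negative ionization mode. Separation used a Zorbax Extend-C18 column (2.1 × 50 mm, 1.8 μm) at 100 μL/min, with water and acetonitrile each containing 0.1% formic acid. Dead and dwell volumes were 40 μL and 900 μL, and data were collected over 3 months. Retention time was read from computationally picked adduct peaks, each inspected manually.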

SMILES	RP-LC retention time [s]
Cc1cccc(C(=O)Nc2ccc(N3CCN(C4CCCC4)C3=O)nc2)c1	888
Cc1cc(C(=O)Nc2nnc(SCC(=O)N3CCCc4ccccc43)s2)c(C)o1	894
COc1ccc(NC(=O)CC(C)=O)c(OC)c1	649
O=C(CN1CCC(c2nnc(-c3ccc(F)cc3)o2)CC1)Nc1cccnc1	539
COc1ccc(-c2csc(Nc3cccc(C)n3)n2)cc1	821
Cc1ccn2cc(-c3ccc(NC(=O)c4ccccc4C(F)(F)F)cc3)nc2n1	664
CCOc1ncccc1C(=O)OCc1cc(-c2ccco2)on1	927
O=C(NCc1ccco1)C1CCCN(c2ncccc2-c2noc(C3CCC3)n2)C1 (stereo not given)	872
CN1CCN(c2nc(C(=O)NC3CCCC3)cs2)CC1	585
Cc1ccc2c(c1)c1c(n2CC(O)Cn2nc(C)cc2C)CCCC1 (stereo not given)	1050
CC(C)N1CCCn2cc(S(=O)(=O)Nc3cccc(OC(F)(F)F)c3)cc2C1=O	881
Cc1ccc(N2CCN(C(=O)c3c(C)oc4nc(C)nc(N5CCOCC5)c34)CC2)c(C)c1	1020
CC(C)C(=O)NCC12CCCC=C1NC(=O)CC2 (stereo not given)	624
COc1ccc(-c2nnc3sc(-c4cccnc4)nn23)cc1OC	695
Cc1nn(C)cc1CN(C)C(=O)NC1CCCCC1	611
O=C(NCc1ccccc1)N1CC(Oc2ccc(-c3nc(-c4ccccc4)no3)cc2)C1	1130
Cc1cc(C)c(S(=O)(=O)N2CCc3nc[nH]c3C2)cc1C	643
CCN(CC)S(=O)(=O)c1ccc(-c2c(C)noc2C)cc1	936
O=C(Nc1ccccc1C(=O)NCCCN1CCCC1)C1=CSCCO1	613
Cc1ccc(-c2noc(Cn3c(=O)n(CC(C)C)c(=O)c4ccccc43)n2)cc1	1240
Cc1nc(Cn2cccc2C(=O)N2CCN(c3cccc(Cl)c3)CC2)no1	974
COc1ccc(Cl)cc1NC(=O)CSc1ccc(NC(=O)c2ccco2)nn1	851
Cc1ccc(-n2cc(C(=O)NCc3ccccc3Cl)nn2)cc1	921

SMILES	RP-LC retention time [s]
CCc1ccc(S(=O)(=O)N2CCc3c(c(-c4nnc(-c5ccccc5F)o4)nn3C)C2)cc1	1040
CC(=O)N1CCN(S(=O)(=O)c2cc3c4c(c2)CCC(=O)N4CCC3)CC1	647
COc1cc2c(cc1OC)C(C(=O)NCCCN1CCOCC1)C(c1cccs1)N(C)C2=O (stereo not given)	596
O=C(Cc1nnc(-c2ccc3ncccc3c2)o1)Nc1ccc(Cl)cc1	760
O=c1c2cc(-c3ccc(F)cc3)nn2cnn1Cc1nc(-c2ccccc2Cl)no1	1110
CC(C)CCNC(=O)c1cn(C)nc1S(=O)(=O)N1CCC(C)CC1	996
C=CCN(CC=C)S(=O)(=O)c1ccc(C(=O)Nc2nc3c(s2)CCc2ccccc2-3)cc1	1240
COc1ccc(CNC(=O)c2c(C)sc3ccn(Cc4ccc(F)cc4)c(=O)c23)cc1	974
Cc1cccc(-c2ncccc2CNS(=O)(=O)c2cccc(C)c2)c1	721
CC(C)c1ccc(Sc2ccc(N3CCC(C(=O)NCCCO)CC3)nn2)cc1	703
O=C(NC1CCN(c2cc(-c3ccc(F)cc3)[nH]n2)C1)c1ccncc1 (stereo not given)	611
Cn1cc(CC(=O)NCc2ccc(F)cc2Cl)c2cccnc21	727
O=C(C1=NN(Cc2ccccc2)c2ccccc2S1(=O)=O)N1CCCCC1	929
COc1cc(NC(=O)Cn2c(N3CCc4ccccc4C3)nc(C)cc2=O)cc(OC)c1OC	721
CSc1ccc(N2C(C)=NS(=O)(=O)c3cccnc32)cc1	811
CCOc1ccc(NC(=O)c2oc3ccccc3c2C)c2cccnc12	698
COc1ccc(-n2c(=O)c(C(=O)NC(C)c3ccc(F)cc3)c(O)c3cccnc32)cc1 (stereo not given)	1220
CCc1ccc(-c2nc(C3CC(=O)N(c4ccc(OC)cc4)C3)no2)cc1 (stereo not given)	1090
Cc1cc2ccccc2n2c(SCC(=O)NCc3ccco3)nnc12	663
Cc1ccc(-n2nc(C)c3c(C)c(CCC(=O)N4CCN(c5ccccn5)CC4)c(C)nc32)cc1	756
CCN(CC)CCNC(=O)Cn1c(-c2ccccn2)nc2ccccc21	571
Cc1cc(C)cc(NC(=O)N2CCCC(Cn3c(C4CC4)nc4cccnc43)C2)c1 (stereo not given)	731
CCn1ccc(C(=O)NC2CC2)n1	619

SMILES	RP-LC retention time [s]
CCCCN(C)C(=O)C1CCCN(c2nnc(C)c3c(C)n(-c4ccc(Cl)cc4)nc23)C1 (stereo not given)	782
COc1cccc(NC(=O)Cn2c(=O)c(CCC(=O)NCC(C)C)nc3ccccc32)c1	798
O=C1[C@H]2CN(Cc3cccc(OC(F)(F)F)c3)C[C@H]2C(=O)N1Cc1ccc2c(c1)OCO2	969
CN(C(=O)Cn1cccc1-c1nc(-c2ccc3c(c2)OCO3)no1)c1ccccc1	1090
CCOc1cccc(-c2noc(-c3nn(-c4ccc(C)c(C)c4)ccc3=O)n2)c1	1060
Cc1nc2cc(N3CCCC(C(=O)NCc4ccc(N(C)C)cc4)C3)cnc2nc1C (stereo not given)	586
Cc1ccc(S(=O)(=O)N2CCC3(CC2)NCCN=C3NCc2ccc(F)cc2)cc1C	757
COc1ccccc1CNC(=O)C1CCC(=O)N1S(=O)(=O)c1ccc(C)c(C)c1 (stereo not given)	913
CCn1ccc(C(=O)N2c3ccccc3CC2c2nc(C(C)C)no2)n1 (stereo not given)	970
COc1ccc(OC)c(NC(=O)c2ccc(-n3cnc(NC(=O)C4CC4)c3)cc2)c1	752
Cc1cc(C(=O)NC(C)C)c2cc(Cl)ccc2n1	718
C=CCn1c(SCC(=O)c2cc(C)n(CCOC)c2C)nc2sc(C)c(C)c2c1=O	1140
Cc1cc(C(F)F)n2nc(C(=O)Nc3ccc(C(C)C)cc3)nc2n1	952
O=C(Nc1ccccc1Br)N1CCN(CCn2cnc3cccnc32)CC1	595
CC(C)N1CCC(CC(=O)N2CCc3c(c(-c4nc(C5CC5)no4)nn3C)C2)CC1	612
O=C(Nc1cccc(F)c1)N1CCCC(Cn2c(C3CC3)nc3cccnc32)C1 (stereo not given)	676
CCOc1ccc(NS(=O)(=O)c2ccc3c(c2)C(=O)N(C)c2ncccc2O3)cc1	907
Clc1ccc(C2CC3CCC2N3)cn1 (stereo not given)	613
CCCCOc1ccc(NC(N)=Nc2ccc(Cl)cc2)cc1	778
O=C(CN1CCN(Cc2ccc(F)cc2)C1=O)N1CCN(c2ccccc2)CC1	824
CC(=O)N1CCC2(CC1)CC(CC(=O)NCc1ccc(C)o1)CCO2 (stereo not given)	625
CCCn1cc(S(=O)(=O)Nc2ccc(C)cc2)c2cccnc21	937
COc1ccc(N2CC(c3nc(-c4ccccc4Cl)no3)CC2=O)cc1OC (stereo not given)	878

SMILES	RP-LC retention time [s]
O=C(NCc1ccc(F)c(Cl)c1)c1csc(C(=O)NC2CCCC2)n1	976
O=S(=O)(CCc1ccccc1)N1CCN(c2ccc3nnc(-c4ccco4)n3n2)CC1	752
CCN(CC)c1ncc(NC(=O)c2ccc(Br)cc2)cc1C(=O)O	692
CS(=O)(=O)N1CCCc2cc(C(=O)NCCCn3ccnc3)ccc21	597
COc1cccc(-c2noc(C3CCCN3C(=O)Nc3cccc(C#N)c3)n2)c1 (stereo not given)	927
CSCc1nnc(NC(=O)c2ccc(S(=O)(=O)N3CC(C)OC(C)C3)cc2)o1 (stereo not given)	704
O=C(Cc1ccccc1Cl)Nc1cc(N2CCOCC2)ncn1	635
CSc1ccc(CNC(=O)CN2CCc3[nH]c4c(C)cc(C)cc4c(=O)c3C2)cc1	904
Cc1nc(-c2ccc(N3CCN(C(=O)c4nn(C)c5ccccc45)CC3)nc2)sc1C	966
COc1ccc(NC(=O)C2CCc3nc(N4CCCCC4)ncc3C2)cc1C(F)(F)F (stereo not given)	894
O=C(Cn1c(=O)c(CCC(=O)NC2CCCC2)nc2ccccc21)NCc1ccccc1	782
Cc1ccc(NC(=O)N2CCOCCNC(=O)[C@H]3CCCC[C@H]32)cc1C	829
c1ccc(-n2nnnc2Oc2ccc(CNCCc3c[nH]c4ccccc34)cc2)cc1	748
CCN1CCCn2cc(S(=O)(=O)NCc3ccc(OC)cc3)cc2C1=O	698
CCCn1ccc2oc(C)c(C(=O)NC(C)c3ccc(C)cc3C)c2c1=O (stereo not given)	1190
O=C(N[C@@H]1CN(c2ccncn2)C[C@H]1CO)C1CCCC1	550
O=C(C1=NN(Cc2ccc(Cl)cc2)c2ccccc2S1(=O)=O)N1CCOCC1	854
O=C(c1cccnc1)N1CCN(C(=O)c2nnn3c2COC(c2ccccc2)C3)CC1 (stereo not given)	640
Cc1ccccc1-c1noc(Cc2nnc(-c3cccc(Cl)c3)o2)n1	1140
CCOc1cccc(-c2noc(Cn3ccnc3CC)n2)c1	668
Cc1ccc(S(=O)(=O)N2CCC(OCc3noc(C4CCCO4)n3)CC2)cc1F (stereo not given)	936
